Laboratory results: article PMC9127750, “Structure-based design of CDC42 effector interaction inhibitors for the treatment of cancer” (Cell reports, 2022)
Values joined by “and” are separate entries in the source; they are usually repeats but may differ in a detail not shown here. Equal entries are not always repeated.

Tested on: WM3248 melanoma cells, 486 antibodies
Assay: Reverse phase protein arrays (RPPA)
Format: cell-based, Human
Text: Pellets were snap frozen in liquid nitrogen and shipped to MD Anderson Cancer Center core RPPA facility for RPPA analysis (Table S5). Three biological replicates for each sample were generated.
Nomenclatures on the RPPA heatmaps: name_of_antibody.species_of_antibody.status_of_antibody. V - antibody validated; C - validation of antibody in progress; Q - antibody nonspecific; E – under evaluation; antibodies raised in M - mouse, G - goat, R - rabbit, or T - rat.

[1] = Norm_10: replicates 1-3 and Average, relative to 0

CN(C)c1cccc(Nc2cc(-c3ccccc3)nc(C3CCNCC3)n2)c1 [ARN22089, N1,N1-dimethyl-N3-(6-phenyl-2-(piperidin-4-yl)pyrimidin-4-yl)benzene-1,3-diamine]
p38.MAPK.R.V Average (Norm_10, normalized to Norm_0): 0.984 | p38.MAPK._pT180_Y182.R.V Average (Norm_10, normalized to Norm_0): 0.822 | p38.a.M.V Average (Norm_10, normalized to Norm_0): 1.035 | p44.42.MAPK.R.V Average (Norm_10, normalized to Norm_0): 1.129 | p70.S6K1.R.V Average (Norm_10, normalized to Norm_0): 1.024 | p90RSK_pT573.R.C Average (Norm_10, normalized to Norm_0): 0.999 | PREX1.R.V normalized RPPA signal [1]: 1.017 and 0.962 and 0.972 | PTEN.R.V normalized RPPA signal [1]: 1.166 and 0.849 and 0.856 and 0.957 | PTPN12.R.V normalized RPPA signal [1]: 0.749 and 0.939 and 0.909 | PYGB.R.V normalized RPPA signal [1]: 1.205 and 1.156 and 1.144 | PYGM.M.C normalized RPPA signal [1]: 0.918 and 2.001 and 1.335 | Puma.R.C normalized RPPA signal [1]: 1.060 and 1.017 and 1.055 | Pyk2_pY402.R.C normalized RPPA signal [1]: 1.111 and 0.863 and 0.946 | RBM15.R.V normalized RPPA signal [1]: 0.891 and 1.000 and 0.960 and 0.950 | RIP3.R.C normalized RPPA signal [1]: 0.942 and 0.921 and 0.948 and 0.937 | RIP.R.C normalized RPPA signal [1]: 0.780 and 1.118 and 1.150 and 1.016 | RPA32.R.V normalized RPPA signal [1]: 1.060 and 1.362 and 1.197 and 1.207 | RPA32_pS4_S8.R.C normalized RPPA signal [1]: 1.546 and 1.295 and 1.489 and 1.443 | RRM1.R.C normalized RPPA signal [1]: 0.939 and 0.806 and 0.945 and 0.897 | RRM2.R.C normalized RPPA signal [1]: 0.757 and 0.774 and 0.866 | RSK1.R.V normalized RPPA signal [1]: 1.143 and 1.201 and 1.128 | RSK.R.C normalized RPPA signal [1]: 0.838 and 1.004 and 0.972 | Rab11.R.C normalized RPPA signal [1]: 1.030 and 0.917 and 0.953 | Rab25.R.V normalized RPPA signal [1]: 1.035 and 0.882 and 0.858 and 0.925 | Rad17_pS645.R.V normalized RPPA signal [1]: 0.792 and 0.966 | Rad23A.R.C normalized RPPA signal [1]: 0.804 and 0.923 and 1.597 and 1.108 | Rad50.R.V normalized RPPA signal [1]: 1.116 and 1.111 | Rad51.R.C normalized RPPA signal [1]: 0.827 and 0.908 and 0.944 and 0.893 | Raptor.R.V normalized RPPA signal [1]: 0.845 and 0.882 and 0.940 and 0.889 | Rb.M.Q normalized RPPA signal [1]: 0.863 and 1.097 and 1.016 | Rb_pS807_S811.R.V normalized RPPA signal [1]: 0.811 and 0.958 and 0.878 | Rheb.M.C normalized RPPA signal [1]: 1.032 and 1.240 and 1.115 | Rictor.R.C normalized RPPA signal [1]: 0.988 and 0.910 and 0.945 and 0.948 | Rictor_pT1135.R.V normalized RPPA signal [1]: 0.873 and 0.950 and 0.954 | S6.M.V normalized RPPA signal [1]: 1.085 and 0.996 and 1.017 | S6_pS235_S236.R.V normalized RPPA signal [1]: 0.521 and 0.472 and 0.641 and 0.545 | S6_pS240_S244.R.V normalized RPPA signal [1]: 0.582 and 0.274 and 0.654 and 0.504 | SCD.M.V normalized RPPA signal [1]: 0.991 and 1.046 | SDHA.R.V normalized RPPA signal [1]: 0.992 and 0.940 and 0.859 and 0.930 | SF2.R.V normalized RPPA signal [1]: 0.895 and 1.050 and 0.922 and 0.956 | SFRP1.R.V normalized RPPA signal [1]: 0.808 and 0.981 and 1.003 and 0.931 | SGK1.R.V normalized RPPA signal [1]: 1.008 and 0.920 and 1.014 and 0.981 | SGK3.R.V normalized RPPA signal [1]: 0.816 and 0.987 and 0.963 and 0.922 | SHP2.R.V normalized RPPA signal [1]: 0.944 (2×) and 1.029 and 0.972 | SHP.2_pY542.R.C normalized RPPA signal [1]: 1.060 and 0.917 and 0.992 and 0.990 | SIRPαR.V normalized RPPA signal [1]: 0.835 and 1.085 and 0.937 and 0.953 | SLC1A5.R.C normalized RPPA signal [1]: 1.027 | SOD1.M.V normalized RPPA signal [1]: 0.907 and 1.127 and 1.007 and 1.014 | SOD2.R.V normalized RPPA signal [1]: 1.018 and 1.276 and 0.952 and 1.082 | SOX7.R.V normalized RPPA signal [1]: 1.145 and 1.060 | STING.R.V normalized RPPA signal [1]: 0.851 and 0.953 | Shc_pY317.R.C normalized RPPA signal [1]: 0.714 and 5.496 and 1.397 and 2.535 | Slfn11.G.C normalized RPPA signal [1]: 0.876 and 1.082 and 1.481 and 1.146 | Smac.M.Q normalized RPPA signal [1]: 0.850 and 1.137 and 0.963 and 0.983 | Smad1.R.V normalized RPPA signal [1]: 0.960 and 0.924 and 0.963 | Smad3.R.V normalized RPPA signal [1]: 1.062 and 0.979 and 1.026 | Smad4.R.V normalized RPPA signal [1]: 1.013 and 1.128 and 0.985 | Snail.M.Q normalized RPPA signal [1]: 0.664 and 0.941 and 0.860 and 0.822 | Sox2.R.V normalized RPPA signal [1]: 1.126 and 1.008 and 0.910 and 1.015 | Sox17.R.V normalized RPPA signal [1]: 0.905 and 1.111 and 1.000 and 1.005 | Src.M.V normalized RPPA signal [1]: 0.883 and 1.206 and 0.940 and 1.010 | Src_pY416.R.V normalized RPPA signal [1]: 1.030 and 0.914 and 0.902 | Src_pY527.R.V normalized RPPA signal [1]: 1.278 and 0.689 and 0.973 | Stat1_pY701.R.V normalized RPPA signal [1]: 0.995 (2×) and 1.011 and 1.000 | Stat3.R.C normalized RPPA signal [1]: 0.999 and 0.915 and 0.942 | Stat3_pY705.R.C normalized RPPA signal [1]: 1.077 and 1.148 and 1.012 and 1.079 | Stat5a.R.V normalized RPPA signal [1]: 1.155 and 0.661 and 0.766 and 0.861 | Stathmin.1.R.V normalized RPPA signal [1]: 0.870 and 1.129 and 0.982 | Syk.M.V normalized RPPA signal [1]: 0.771 and 0.940 and 1.123 and 0.945 | Synaptophysin.R.C normalized RPPA signal [1]: 0.939 and 1.003 and 0.960 | TAZ.R.V normalized RPPA signal [1]: 0.664 and 1.279 and 1.012 | TEAD.R.C normalized RPPA signal [1]: 0.761 and 0.855 and 1.077 and 0.898 | TFAM.R.V normalized RPPA signal [1]: 0.933 and 0.917 and 0.914 and 0.921 | TFRC.R.V normalized RPPA signal [1]: 0.993 and 0.819 and 0.888 and 0.900 | TIGAR.R.V normalized RPPA signal [1]: 0.948 and 0.928 and 0.972 | TRAP1.M.V normalized RPPA signal [1]: 0.886 and 1.063 and 0.996 | TRIM24.R.C normalized RPPA signal [1]: 0.955 and 1.027 | TRIM25.R.C normalized RPPA signal [1]: 0.793 and 0.863 and 1.102 and 0.919 | TRIP13.R.V normalized RPPA signal [1]: 1.018 and 1.029 and 1.031 | Tau.M.C normalized RPPA signal [1]: 1.047 and 1.298 and 0.928 | Transglutaminase.M.V normalized RPPA signal [1]: 1.016 and 1.436 and 2.172 and 1.541
